Experimental data from article PMC7893776, “Selecting an anti-malarial clinical candidate from two potent dihydroisoquinolones” (Malaria Journal, 2021).

Assays:
mouse plasma proteins = assay: Plasma protein binding (RED), mouse; type: in vitro ADME; conditions: average of 20, 4, 0.8 µM
Procedure: (§1) A Rapid Equilibrium Dialysis (RED) Plate (Thermo Scientific, catalog #, PI-90007) was used to determine the percentage of compound binding to plasma proteins. The positive control for this experiment was propranolol-HCl (10 mM in DMSO) and the internal standard was warfarin (2 µM in methanol). 10 mM stocks of compound in DMSO were diluted with DMSO acetonitrile (1:4, v:v) to three different intermediate concentrations: high (2 mM), medium (0.4 mM) and low (0.08 mM). A 10 mM stock of propranolol in DMSO was diluted to 0.4 mM concentration in DMSO:acetonitrile (1:4 v:v). In 16 Eppendorf tubes, the control (10 µL) or each of three compound dilutions (10 µL) were each added to separate aliquots of mouse, rat, dog, and human plasma (990 µL). In the RED plate, potassium phosphate buffer (500 µL, 0.1 M, pH 7.4, 37 °C) was placed in every white well and each plasma/compound mixture was added to each of 3 red wells. […] The compounds and internal standard were detected by selected ion recording (SIR). Using the peak area ratio of compound to warfarin from the SIR spectra, the percentage of free compound [1] and bound compound [2] were calculated using the following equations: (1) % free = (concentration buffer chamber/concentration plasma chamber)*100, and (2) % bound = 100 − % free.

human plasma proteins = assay: Plasma protein binding (RED), human; type: in vitro ADME; conditions: average of 20, 4, 0.8 µM
Procedure: as §1

rat plasma proteins = assay: Plasma protein binding (RED), rat; type: in vitro ADME; conditions: average of 20, 4, 0.8 µM
Procedure: as §1

[1] = LogP, Gemini Profiler titration; type: physicochemical
Procedure: LogP was measured using a Gemini Profiler instrument (pION Inc., Billerica, MA). 1–2 mg of compound was dissolved in octanol (0.5 mL) in a test tube. The test tube was purged with argon and a magnetic stir bar was added. The solution was treated with aqueous KCl (2.5 mL, 0.15 M) and stirred for 10 min. The pH was adjusted to 2 by addition of aqueous HCl (0.5 M). The resulting solution was titrated by adding aqueous KOH (0.5 M) in small aliquots (controlled by the Gemini Profiler software), until the pH reached 12. The volume of each addition and the corresponding pH of the test solution were recorded. Data were processed using pS software. The data points were fitted to a Bjerrum plot to achieve the best GOF (goodness of fitness) and a logP value was obtained. All measurements were conducted in triplicate.

Caco-2 cells = assay: Caco-2 permeability; type: in vitro ADME; conditions: for Caco-2 Efflux Ratio: B→A / A→B
Procedure: Caco-2 cells were maintained at 37 °C in a humidified incubator with an atmosphere of 5% CO2. The cells were cultured in Eagle's Minimum Essential Medium (EMEM) containing 20% fetal bovine serum (FBS) in 75 cm^2 flasks, supplemented with 100 units/ml of penicillin and 100 µg/mL of streptomycin. The Caco-2 cells were seeded onto inserts of a 96-well plate (HTS-Transwell inserts, surface area: 0.143 cm^2, Corning) at a cell density of 0.5 × 10^5 cells/insert. The culture medium was replaced every 2 days, and the cells were maintained for 7 days at 37 °C and 5% CO2. Caco-2 cell monolayers with trans epithelial electrical resistance (TEER) values greater than 400 Ω cm^2 were used for the subsequent assays. The permeability assay was initiated by adding an appropriate volume of HBSS/HEPES containing test compounds to either the apical (A to B) or basolateral (B to A) side of the monolayer, then adding the blank HBSS/HEPES buffer in the receiving compartment, the basolateral or apical side of the monolayer. The Caco-2 cell monolayers were then incubated for 2 h at 37 °C. To make a sample plate, fractions were collected from the basolateral side or apical side and quenched by adding onefold volume of acetonitrile with internal standard (2 µM warfarin) to each well. In a reference plate, the above HBSS/HEPES buffer containing test compounds were diluted with quenching solvent the same as that in the sample plate. 10 µL of supernatants were injected and analysis by UPLC/MS (Waters; Milford, MA). The test compound concentrations were quantified by comparing the sample well to the reference well via peak areas. The A→B (or B→A) apparent permeability coefficients (Papp, 10^–6 cm/s) of each compound were calculated using the equation, Papp = dQ/dt × 1/AC0. The flux of a drug across the monolayer was dQ/dt (µmol/s). The initial drug concentration on the apical or basolateral side was C0 (µM). The surface area of the monolayer was A (cm^2). The efflux ratio is the ratio of apparent permeability for a test compound in the basolateral to apical (B → A) direction relative to that in the A → B direction. All compounds were tested in triplicate.

dog plasma proteins = assay: Plasma protein binding (RED), dog; type: in vitro ADME; conditions: average of 20, 4, 0.8 µM
Procedure: as §1

[2] = Rat single oral dose toxicology / toxicokinetic study; type: in vivo, male Sprague Dawley rats
Procedure: The high dose levels of both compounds (50, 100, 200 mg/kg, PO, (+)-SJ733/311) were also independently tested by SRI, with a single oral gavage administration. Blood (through jugular vein) and urine were collected at time points up to 72 and 24 h post dose, respectively. Supernatant plasma was removed following centrifugation and stored frozen (− 70 °C) until LC–MS analysis. For toxicology studies, male Sprague Dawley rats were administered 50, 100, 250, 500, or 750 mg/kg of (r)-SJ733 or (r)-SJ311 by oral gavage (one dose per animal). Body weights were recorded on Day 1 prior to dose administration and on Day 4. Blood samples (400 µL) were collected at 4 and 24 h post drug administration from the retro-orbital sinus. Potassium EDTA treated plasma was collected and kept frozen at -70 °C for bioanalytical analysis. Rat samples from the toxicokinetic study at SRI were analyzed at SJCRH using the method described above. The calibration range was from 47 to 26,000 ng/mL for plasma.

SMILES | % bound (mouse plasma proteins) [%] | % bound (human plasma proteins) [%] | % bound (rat plasma proteins) [%] | LogP [1] | Permeability, Caco-2 (Caco-2 cells; Apical to Basal) | Permeability, Caco-2 (Caco-2 cells; Basolateral to Apical) | Caco-2 Efflux Ratio (Caco-2 cells) | % bound (dog plasma proteins) [%] | clinical observation ([2]; rats, 100 and 500 mg/kg groups, single oral gavage) | AUCinf at the highest event free dose ([2]; rat) | adverse events ([2]; rat, at any dose) | provable therapeutic window ([2]; rat, in vivo)
N#Cc1cc(NC(=O)C2c3ccccc3C(=O)N(CC(F)(F)F)C2c2cn[nH]c2)ccc1F (racemic) [(r)-SJ311] | 93.7 ± 0.7 | 95.3 ± 0.6 | 91.0 ± 0.1 | 1.24 ± 0.28 (logP( +)) | 12.5 ± 0.7 10^–6 cm/s | 16.6 ± 2.0 10^–6 cm/s | 1.34 ± 0.21 | 90.0 ± 1.0 | Ruffled fur |  |  | 
N#Cc1cc(NC(=O)C2c3ccccc3C(=O)N(CC(F)(F)F)C2c2cccnc2)ccc1F (racemic) [(r)-SJ733] | 95.7 ± 0.6 | 94.3 ± 0.6 | 90.0 ± 1.7 | 2.95 ± 0.03 (logP( +)) | 9.4 ± 1.6 10^–6 cm/s | 11.0 ± 1.6 10^–6 cm/s | 1.17 ± 0.04 | 88.3 ± 3.1 |  |  |  | 
N#Cc1cc(NC(=O)[C@H]2c3ccccc3C(=O)N(CC(F)(F)F)[C@@H]2c2cccnc2)ccc1F (racemic) [SJ733] |  |  |  |  |  |  |  |  |  | over 217 µM h | No adverse events | above 40
